Test results: patent publication US8067175B2, “Methods and compositions for detecting a drug resistant EGFR mutant” (priority 2005, dated 2011)

Tested on: lung adenocarcinoma
Assay: Case reports of patients treated with gefitinib or erlotinib

| Compound | chest radiograph response (patient 1, 250 mg daily, 2 wk after start) | chest radiograph outcome (patient 1, nine mo later) | disease outcome on adjuvant treatment (patient 3, after three mo) | CT scan response of bilateral nodules (patient 2, 150 mg daily, 4 mo after treatment) | adverse effect leading to dose decrease (patient 2, after 14 mo of therapy, dose decreased to 100 mg daily) | disease outcome (patient 2, after 25 mo of treatment) |
| --- | --- | --- | --- | --- | --- | --- |
| COc1cc2ncnc(Nc3ccc(F)c(Cl)c3)c2cc1OCCCN1CCOCC1 [gefitinib] | dramatic improvement | progression of disease | developed a new left-sided malignant pleural effusion | – | – | – |
| C#Cc1cccc(Nc2ncnc3cc(OCCOC)c(OCCOC)cc23)c1 [erlotinib] | – | – | – | markedly reduced in number and size | fatigue | the disease progressed within the lung |
